Results: patent US8471005B2 (Cephalon, Inc., priority 2008, dated 2013)
pIC50: −log10 of the molar value. Where two headings read alike, the source gives them in different places.

Tests used:
[1] = molecular target: T1, ALK (Homo sapiens, UniProt Q9UM73); assay: ALK Kinase Assay (ELISA/TRF, PLC-γ substrate); format: biochemical; conditions: read-out: ALK Potency
T1 construct: host or cells: baculovirus expression system
Procedure, shortened: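 Wells were coated with 10 μg/mL phospholipase C-γ substrate in TBS, and the reaction was started by adding 30 ng/ml ALK enzyme and run at 37° C for 15 minutes. Phosphorylated product was detected with Eu-N1-labeled PT66 antibody, and IC50 values came from sigmoidal variable-slope fits of percent inhibition against log concentration.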

[2] = molecular target: T2, JAK2 (Homo sapiens, UniProt O60674); assay: Recombinant Human JAK2 Kinase Assay (TRF); format: biochemical; conditions: read-out: JAK2 Potency
T2 construct: host or cells: baculovirus expression system
T2 sequence (O60674 whole entry): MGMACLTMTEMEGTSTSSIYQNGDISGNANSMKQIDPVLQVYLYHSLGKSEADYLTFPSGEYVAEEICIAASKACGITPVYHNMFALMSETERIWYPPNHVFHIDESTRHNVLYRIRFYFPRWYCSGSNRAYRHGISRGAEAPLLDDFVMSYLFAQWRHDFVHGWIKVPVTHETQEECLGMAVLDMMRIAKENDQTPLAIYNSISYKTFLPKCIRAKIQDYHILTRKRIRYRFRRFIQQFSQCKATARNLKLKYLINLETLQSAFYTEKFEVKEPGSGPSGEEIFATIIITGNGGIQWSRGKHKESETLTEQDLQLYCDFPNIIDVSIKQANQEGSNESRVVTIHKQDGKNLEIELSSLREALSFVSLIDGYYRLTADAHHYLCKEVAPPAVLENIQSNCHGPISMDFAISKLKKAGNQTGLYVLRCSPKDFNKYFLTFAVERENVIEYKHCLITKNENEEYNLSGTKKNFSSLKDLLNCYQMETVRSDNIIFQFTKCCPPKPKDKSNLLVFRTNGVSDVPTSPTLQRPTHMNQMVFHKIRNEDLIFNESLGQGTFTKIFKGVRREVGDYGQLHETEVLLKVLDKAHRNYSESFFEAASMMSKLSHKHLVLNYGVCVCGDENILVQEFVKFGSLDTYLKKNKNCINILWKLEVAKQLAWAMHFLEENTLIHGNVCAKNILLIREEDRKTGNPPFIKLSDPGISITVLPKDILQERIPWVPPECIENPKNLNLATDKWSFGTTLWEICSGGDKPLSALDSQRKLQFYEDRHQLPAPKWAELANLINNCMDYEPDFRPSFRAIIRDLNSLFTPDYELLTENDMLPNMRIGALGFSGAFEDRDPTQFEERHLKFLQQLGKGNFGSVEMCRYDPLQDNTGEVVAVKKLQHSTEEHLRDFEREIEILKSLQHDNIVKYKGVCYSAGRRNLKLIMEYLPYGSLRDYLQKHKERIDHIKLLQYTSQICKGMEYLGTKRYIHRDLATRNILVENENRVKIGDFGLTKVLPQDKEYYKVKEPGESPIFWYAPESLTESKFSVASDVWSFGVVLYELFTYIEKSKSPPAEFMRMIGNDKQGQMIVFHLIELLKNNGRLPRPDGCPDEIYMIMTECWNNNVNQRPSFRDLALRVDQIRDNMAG
Procedure, shortened: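 Europium-labelled PY100 antibody reported tyrosine phosphorylation of a Neutravidin-captured biotinyl 15-mer peptide by JAK2 (baculovirus-expressed, 15 ng/ml). Conditions: 20 mM HEPES pH 7.2, 0.2 μM ATP, 1 mM MnCl2, 0.1% BSA, DMSO 2.5% final, 20 min at room temperature.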

[3] = ALK kinase inhibition, 1 μM ATP
[4] = JAK2 kinase inhibition, 0.2 μM ATP

T1 sequence (Q9UM73 19-1620): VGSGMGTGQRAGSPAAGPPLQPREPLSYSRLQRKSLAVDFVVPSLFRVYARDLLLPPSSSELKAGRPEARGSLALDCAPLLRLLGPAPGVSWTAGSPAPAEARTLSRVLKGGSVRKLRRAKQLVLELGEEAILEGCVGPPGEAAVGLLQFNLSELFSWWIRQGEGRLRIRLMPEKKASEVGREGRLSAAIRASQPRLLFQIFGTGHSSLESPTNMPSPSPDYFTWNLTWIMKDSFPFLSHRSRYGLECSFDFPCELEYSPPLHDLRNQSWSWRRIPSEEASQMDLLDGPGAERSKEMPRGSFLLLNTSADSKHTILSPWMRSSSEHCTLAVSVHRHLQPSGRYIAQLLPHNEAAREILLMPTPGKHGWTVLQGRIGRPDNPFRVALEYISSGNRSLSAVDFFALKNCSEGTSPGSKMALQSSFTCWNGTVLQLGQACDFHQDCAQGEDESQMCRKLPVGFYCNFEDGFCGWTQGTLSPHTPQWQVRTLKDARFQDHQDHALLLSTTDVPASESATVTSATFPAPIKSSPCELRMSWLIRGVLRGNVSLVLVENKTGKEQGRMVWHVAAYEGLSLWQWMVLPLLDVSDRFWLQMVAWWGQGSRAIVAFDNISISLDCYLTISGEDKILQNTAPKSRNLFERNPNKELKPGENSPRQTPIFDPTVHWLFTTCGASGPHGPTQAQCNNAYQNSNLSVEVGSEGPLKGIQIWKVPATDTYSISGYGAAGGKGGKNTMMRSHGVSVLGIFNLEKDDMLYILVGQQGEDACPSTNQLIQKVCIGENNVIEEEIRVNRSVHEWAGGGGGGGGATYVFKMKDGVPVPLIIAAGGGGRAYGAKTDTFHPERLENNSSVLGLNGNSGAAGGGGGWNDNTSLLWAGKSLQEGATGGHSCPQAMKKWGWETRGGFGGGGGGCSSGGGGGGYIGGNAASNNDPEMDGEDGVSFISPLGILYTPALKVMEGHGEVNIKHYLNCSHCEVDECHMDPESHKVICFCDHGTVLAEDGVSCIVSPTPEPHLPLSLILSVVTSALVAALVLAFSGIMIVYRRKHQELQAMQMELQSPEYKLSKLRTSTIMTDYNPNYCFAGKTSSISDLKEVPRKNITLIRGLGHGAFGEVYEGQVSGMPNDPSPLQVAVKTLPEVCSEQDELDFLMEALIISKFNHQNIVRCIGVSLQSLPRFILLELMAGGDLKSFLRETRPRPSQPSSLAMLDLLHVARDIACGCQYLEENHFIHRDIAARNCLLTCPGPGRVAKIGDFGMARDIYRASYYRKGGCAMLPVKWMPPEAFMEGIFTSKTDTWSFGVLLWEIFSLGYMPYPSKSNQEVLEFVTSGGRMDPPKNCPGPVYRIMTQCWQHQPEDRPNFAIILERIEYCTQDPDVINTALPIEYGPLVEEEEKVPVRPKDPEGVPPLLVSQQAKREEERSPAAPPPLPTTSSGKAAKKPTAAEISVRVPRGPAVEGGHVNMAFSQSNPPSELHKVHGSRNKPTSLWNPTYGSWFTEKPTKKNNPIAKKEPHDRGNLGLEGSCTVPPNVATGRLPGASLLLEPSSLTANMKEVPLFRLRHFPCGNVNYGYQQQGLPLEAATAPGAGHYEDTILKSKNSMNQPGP

pIC50 ([1]; ALK Kinase Inhibition) | pIC50 ([2]; JAK2 Kinase Inhibition) | pIC50 [1, 3] | pIC50 [2, 4] | Compound
6.00 to 7.00 | > 7.00 | – | – | NC(=O)CN1CCC(c2ccc(Nc3ncc4ccc(-c5cccc6c5OC(F)(F)O6)n4n3)cc2)CC1 [Example 1540, 2-(4-{4-[7-(2,2-Difluoro-benzo[1,3]dioxol-4-yl)-pyrrolo[2,1-f][1,2,4]triazin-2-ylamino]-phenyl}-piperidin-1-yl)-acetamide]
– | – | 5.00 to 6.00 | > 7.00 | CC(C)(C)NS(=O)(=O)c1cccc(-c2ccc3cnc(Nc4ccc5c(c4)N(S(C)(=O)=O)CCC5)nn23)c1 [Example 1060, N-tert-Butyl-3-[2-(1-methanesulfonyl-1,2,3,4-tetrahydro-quinolin-7-ylamino)-pyrrolo[2,1-f][1,2,4]triazin-7-yl]-benzenesulfonamide]
– | – | 5.00 to 6.00 | 5.00 to 6.00 | COc1cc(C2CCNCC2)ccc1Nc1ncc2ccc(-c3cccc4c3NC(=O)C4)n2n1 [Example 714, 7-[2-(2-Methoxy-4-piperidin-4-ylphenylamino)pyrrolo[2,1-f][1,2,4]triazin-7-yl]-1,3-dihydro-indol-2-one]
– | – | > 7.00 | > 7.00 | CCN1CCOC(c2ccc(Nc3ncc4ccc(-c5ccccc5N(C)S(C)(=O)=O)n4n3)cc2)C1 (stereo not drawn) [Example 995, N-(2-{2-[4-(4-Ethyl-morpholin-2-yl)-phenylamino]-pyrrolo[2,1-f][1,2,4]triazin-7-yl}-phenyl)-N-methyl-methanesulfonamide]
– | – | 5.00 to 6.00 | > 7.00 | CN(c1ccccc1-c1ccc2cnc(Nc3cnn(CCN4CCOCC4)c3)nn12)S(C)(=O)=O [Example 1193, N-Methyl-N-(2-{2-[1-(2-morpholin-4-yl-ethyl)-1H-pyrazol-4-ylamino]-pyrrolo[2,1-f][1,2,4]triazin-7-yl}-phenyl)-methanesulfonamide]
5.00 to 6.00 | > 7.00 | – | – | CC(=O)Nc1cc(Nc2ncc3ccc(-c4cnn(C)c4)n3n2)ccc1C(C)(C)C [Example 1380, N-{2-tert-Butyl-5-[7-(1-methyl-1H-pyrazol-4-yl)-pyrrolo[2,1-f][1,2,4]triazin-2-ylamino]-phenyl}-acetamide]
– | – | > 7.00 | > 7.00 | CN1CCN(c2ccc(Nc3ncc4ccc(-c5ccccc5O)n4n3)cc2)CC1 [Example 1154, 2-{2-[4-(4-Methyl-piperazin-1-yl)-phenylamino]-pyrrolo[2,1-f][1,2,4]triazin-7-yl}-phenol]
– | – | > 7.00 | > 7.00 | CS(=O)(=O)c1ccc(-c2ccc3cnc(Nc4ccc(C5CCN(CCO)CC5)cc4)nn23)cc1 [Example 679, 2-(4-{4-[7-(4-Methanesulfonyl-phenyl)-pyrrolo[2,1-f][1,2,4]triazin-2-ylamino]-phenyl}-piperidin-1-yl)-ethanol]
6.00 to 7.00 | > 7.00 | – | – | COc1ccc(-c2ccc3cnc(Nc4ccc5nc(CN6CCN(C)CC6)[nH]c5c4)nn23)cn1 [Example 1527, [7-(6-Methoxy-pyridin-3-yl)-pyrrolo[2,1-f][1,2,4]triazin-2-yl]-[2-(4-methyl-piperazin-1-ylmethyl)-3H-benzimidazol-5-yl]-amine]
– | – | 6.00 to 7.00 | > 7.00 | CN1CCN(c2ccc(Nc3ncc4ccc(-c5ccc(N)nc5)n4n3)cc2)CC1 [Example 1118, [7-(6-Amino-pyridin-3-yl)-pyrrolo[2,1-f][1,2,4]triazin-2-yl]-[4-(4-methyl-piperazin-1-yl)-phenyl]-amine]
< 5.00 | > 7.00 | – | – | [5-Bromo-7-(4-methanesulfonyl-phenyl)-pyrrolo[2,1-f][1,2,4]triazin-2-yl]-(4-morpholin-4-yl-phenyl)-amine [Example 99]
< 5.00 | > 7.00 | – | – | CC(=O)Nc1cc(Nc2ncc3ccc(-c4cccc(Cl)c4)n3n2)ccc1C(C)(C)C [Example 307, N-{2-tert-Butyl-5-[7-(3-chloro-phenyl)-pyrrolo[2,1-f][1,2,4]triazin-2-ylamino]-phenyl}-acetamide]
6.00 to 7.00 | > 7.00 | – | – | c1ccc(-c2ccc3cnc(Nc4ccc(N5CCOCC5)cc4)nn23)cc1 [Example 2, (4-Morpholin-4-yl-phenyl)-(7-phenyl-pyrrolo[2,1-f][1,2,4]triazin-2-yl)amine]
– | – | 6.00 to 7.00 | > 7.00 | CC(C)S(=O)(=O)c1cccc(-c2ccc3cnc(Nc4ccc(C5CCN(CC(N)=O)CC5)cc4)nn23)c1 [Example 570, 2-[4-(4-{7-[3-(Propane-2-sulfonyl)-phenyl]-pyrrolo[2,1-f][1,2,4]triazin-2-ylamino}-phenyl)-piperidin-1-yl]-acetamide]
– | – | > 7.00 | 6.00 to 7.00 | COc1cc(C2CCN(C3COC3)CC2)ccc1Nc1ncc2ccc(-c3ccccc3OC)n2n1 [Example 827, [2-Methoxy-4-(1-oxetan-3-yl-piperidin-4-yl)-phenyl]-[7-(2-methoxy-phenyl)-pyrrolo[2,1-f][1,2,4]triazin-2-yl]-amine]
– | – | 5.00 to 6.00 | > 7.00 | N#CCCn1cccc1-c1ccc2cnc(Nc3cccc(N4CCCC4=O)c3)nn12 [Example 1296, 3-(2-{2-[3-(2-oxo-pyrrolidin-1-yl)-phenylamino]-pyrrolo[2,1-f][1,2,4]triazin-7-yl}-pyrrol-1-yl)-propionitrile]
5.00 to 6.00 | > 7.00 | – | – | COc1cccc(Nc2ncc3ccc(-c4ccccc4OC)n3n2)c1 [Example 145, (3-Methoxy-phenyl)-[7-(2-methoxy-phenyl)-pyrrolo[2,1-f][1,2,4]triazin-2-yl]-amine]
6.00 to 7.00 | > 7.00 | – | – | CN1CCN(CC2CCCN(c3ccc(Nc4ncc5ccc(-c6ccc(S(C)(=O)=O)cc6)n5n4)cc3)C2)CC1 (stereo not drawn) [Example 457, [7-(4-Methanesulfonyl-phenyl)-pyrrolo[2,1-f][1,2,4]triazin-2-yl]-{4-[3-(4-methyl-piperazin-1-ylmethyl)-piperidin-1-yl]-phenyl}-amine]
– | – | > 7.00 | > 7.00 | COc1cc(N2CCN(C[C@H](C)O)CC2)ccc1Nc1ncc2ccc(-c3ccccc3OC)n2n1 [Example 753, (S)-1-(4-{3-Methoxy-4-[7-(2-methoxy-phenyl)-pyrrolo[2,1-f][1,2,4]triazin-2-ylamino]-phenyl}-piperazin-1-yl)-propan-2-ol]
– | – | > 7.00 | > 7.00 | COc1cc(N2CCN(C[C@@H](C)O)CC2)ccc1Nc1ncc2ccc(-c3ccccc3OC)n2n1 [Example 754, (R)-1-(4-{3-Methoxy-4-[7-(2-methoxy-phenyl)-pyrrolo[2,1-f][1,2,4]triazin-2-ylamino]-phenyl}-piperazin-1-yl)-propan-2-ol]
5.00 to 6.00 | > 7.00 | – | – | COc1ccc(Cl)cc1-c1ccc2cnc(Nc3ccc(N4CCOCC4)c(F)c3)nn12 [Example 188, [7-(5-Chloro-2-methoxy-phenyl)-pyrrolo[2,1-f][1,2,4]triazin-2-yl]-(3-fluoro-4-morpholin-4-yl-phenyl)-amine]
– | – | 5.00 to 6.00 | > 7.00 | CS(=O)(=O)c1cccc(-c2ccc3cnc(Nc4ccc(-c5cccnc5)cc4)nn23)c1 [Example 1087, [7-(3-Methanesulfonyl-phenyl)-pyrrolo[2,1-f][1,2,4]triazin-2-yl]-(4-pyridin-3-yl-phenyl)-amine]
> 7.00 | 6.00 to 7.00 | – | – | COc1cc(N2CCC(C(=O)N3CCN(C)CC3)CC2)ccc1Nc1ncc2ccc(-c3ccccc3OC)n2n1 [Example 458, (1-{3-Methoxy-4-[7-(2-methoxy-phenyl)-pyrrolo[2,1-f][1,2,4]triazin-2-ylamino]-phenyl}-piperidin-4-yl)-(4-methyl-piperazin-1-yl)-methanone]
6.00 to 7.00 | > 7.00 | – | – | CN1CCN(c2cccc(Nc3ncc4ccc(-c5cccc(N6CCOCC6)c5)n4n3)c2)CC1 [Example 1392, [3-(4-Methyl-piperazin-1-yl)-phenyl]-[7-(3-morpholin-4-yl-phenyl)-pyrrolo[2,1-f][1,2,4]triazin-2-yl]-amine]
> 7.00 | > 7.00 | – | – | COc1ccccc1-c1ccc2cnc(Nc3cccc(N4CCC(N5CCOCC5)CC4)c3)nn12 [Example 195, [7-(2-Methoxy-phenyl)-pyrrolo[2,1-f][1,2,4]triazin-2-yl]-[3-(4-morpholin-4-yl-piperidin-1-yl)-phenyl]-amine]
– | – | 6.00 to 7.00 | > 7.00 | COc1ccccc1-c1ccc2cnc(Nc3ccc4c(c3)ncn4CCN3CCOCC3)nn12 [Example 1348, [7-(2-Methoxy-phenyl)-pyrrolo[2,1-f][1,2,4]triazin-2-yl]-[1-(2-morpholin-4-yl-ethyl)-1H-benzimidazol-5-yl]-amine]
5.00 to 6.00 | > 7.00 | – | – | CS(=O)(=O)c1ccc(-c2ccc3cnc(Nc4cccc(N5CCOCC5)c4)nn23)cc1F [Example 193, [7-(3-Fluoro-4-methanesulfonyl-phenyl)-pyrrolo[2,1-f][1,2,4]triazin-2-yl]-(3-morpholin-4-yl-phenyl)-amine]
6.00 to 7.00 | > 7.00 | – | – | CS(=O)(=O)c1cccc(-c2ccc3cnc(Nc4ccc(N5CCOCC5)cc4)nn23)c1 [Example 43, [7-(3-Methanesulfonyl-phenyl)-pyrrolo[2,1-f][1,2,4]triazin-2-yl]-(4-morpholin-4-yl-phenyl)-amine]
– | – | 5.00 to 6.00 | > 7.00 | Clc1ncccc1-c1ccc2cnc(Nc3ccc(N4CCOCC4)cc3)nn12 [Example 1034, [7-(2-Chloro-pyridin-3-yl)-pyrrolo[2,1-f][1,2,4]triazin-2-yl]-(4-morpholin-4-yl-phenyl)-amine]

Compound | pIC50 ([1]; ALK Kinase Inhibition) | pIC50 ([2]; JAK2 Kinase Inhibition) | pIC50 [1, 3] | pIC50 [2, 4]
NC(=O)CN1CCC(c2ccc(Nc3ncc4ccc(C5=CCNCC5)n4n3)cc2)CC1 [Example 664, 2-(4-{4-[7-(1,2,3,6-Tetrahydro-pyridin-4-yl)-pyrrolo[2,1-f][1,2,4]triazin-2-ylamino]-phenyl}-piperidin-1-yl)-acetamide] | – | – | 6.00 to 7.00 | > 7.00
